Reference: patent publication US20230064292A1, “METHODS OF TREATING PSMA-POSITIVE CANCER USING RADIONUCLIDE THERAPY” (priority 2020, published 2023)
Values joined by “and” are separate entries in the source; they are usually repeats but may differ in a detail not shown here. Identical values can stand only once.

Experiments:
[1] = Physical examination and monitoring for adverse events in the clinical trial; type: in vivo, human; conditions: to date
[2] = Preclinical rat studies of CTT1403 kidney exposure; type: in vivo
Description: CTT1403 localization in various organs is accomplished by estimating dosimetry using SPECT/CT or SPECT/MRI imaging of the radioisotope component (using the gamma particle emission) of CTT1403, ^177Lu, up to 8 days after the first dose. […] Preclinical studies in rats with CTT1403 identified the kidneys as the dose limiting organ. Table 2, below, summarizes kidney dosimetry calculated from the first 15 patients enrolled in the study after receipt of escalating doses of CTT1403 and contrasts it with the predicted kidney exposure from rat studies. […] Preclinical studies in rats estimated expected kidney exposure of ˜5.2 Gy/GBq. […] CTT1403 may be sequestered in tumors and under exposing the kidney.

[3] = tested on: prostate specific antigen (PSA); experiment: PSA levels in patients after CTT1403 administration; type: in vivo, human
Description: (§1) In order to investigate the pharmacokinetics of CTT1403, doses were administered by IV to fifteen subjects. The subjects each had histologically confirmed prostate adenocarcinoma that was metastatic and castration resistant (mCRPA). Subjects with de novo small cell carcinoma of the prostate were excluded. The subjects further had at least three metastatic foci avid for PSMA-specific PET agent CTT1057 or 68Ga-PSMA-11 uptake. PSMA avidity was defined as SUVmax>mediastinal blood pool. The subjects had received docetaxel, were ineligible for docetaxel, or had refused docetaxel. They all further had progression by the PCWG3 criteria during or after treatment with abiraterone, enzalutamide, and/or apalutamide, and had serum testosterone<50 ng/dL. Subjects without a history of bilateral orchiectomy were required to remain on a luteinizing hormone-releasing hormone (LHRH) analog during the course of the protocol therapy.
Reduction in prostate specific antigen (PSA) at least 12 weeks after therapeutic administration is generally thought to be predictive of therapeutic efficacy. PSA levels at screening, at CTT1403 administration and at specified time points after CTT1403 administration are shown for selected patients enrolled in the trial, including patients still actively under observation (Patients 13, 14, 15). Reduction in PSA compared to Cycle 1, Day 1 has been observed in 4 patients to date: Patient 002 (75% maximum reduction), Patient 4 (40% maximum reduction), Patient 13 (14% reduction to date) and Patient 15 (9% reduction to date).

[4] = Pharmacokinetics of CTT1403 in mCRPC subjects (radioactivity of blood samples); type: in vivo, human
Description: as §1
Pharmacokinetics assessment follows the movement of drugs throughout the body, including measurement of the drug's half-life in circulation. The longer a drug remains available in circulation before being cleared from the body, the greater the opportunity for it to meet its target and achieve the desired therapeutic effect. To measure pharmacokinetics, remaining CTT1403 was estimated by measuring the radioactivity of blood sample withdrawn at particular time points. Each patient received a dose ranging from 0.75 GBq to 7.5 GBq.
This is already more than a 5.3-fold greater distribution phase and 3.5-fold greater elimination phase than the PSMA-617 agent (without the albumin binder) and will further increase as the dose increases. […] CTT anticipates that these early observations will translate to compelling efficacy as the trial progresses. Table 1 reports the blood distribution and elimination half-lives for 13 of 15 patients enrolled in the study. […] Longer clearance half-lives will advantageously yield enhanced drug delivery as CTT1403 has more time to find and bind to expressed PSMA. This effect also allows more time for the therapeutic agent to reach smaller tumors or poorly-vascularized tumors. Longer systemic circulation of CTT1403 afforded by the albumin motif believed to lead to lower dosing of the kidneys, a dose-limiting factor, allowing higher dosages to be safely administered.

[5] = tested on: PSMA-expressing PC3-PIP cells; experiment: Cellular uptake and internalization in PSMA-expressing PC3-PIP cells; type: cell-based
Description: The PSMA binding scaffold of PSMA binds irreversibly to the extracellular enzymatic domain of PSMA leading to rapid internalization by PSMA-expressing cancer cells. Tumor cell uptake of CTT1403 is ˜84% after just 2½ hours (FIG. 1), compared to less than 40% tumor cell uptake of ^177Lu-PSMA-617 (structure shown below), in PSMA-expressing PC3-PIP cells.
Given that 99% of cell bound CTT1403 is internalized, compared to just 15% of ^177Lu-PSMA-617, targeting by CTT1403 is expected to confer a significant therapeutic advantage. This greater uptake will allow treatment of smaller tumors for a longer time. Both irreversible binding and cellular internalization increases exposure of target tissue to the therapeutic agent. Greater accumulation in the target tissue will permit a lower efficacious dose and/or dosing frequency, thus reducing a patient's total clinical exposure to the radionuclide and improving the therapeutic index.

[6] = 1.5 GBq IV (1st patient at this dose)
[7] = 2.0 GBq IV (1st patient at this dose)
[8] = 3.0 GBq IV (1st patient at this dose)
[9] = 3.0 GBq IV (2nd patient at this dose)
[10] = 3.0 GBq IV (3rd patient at this dose)
[11] = 4.5 GBq IV (1st patient at this dose)
[12] = 4.5 GBq IV (2nd patient at this dose)
[13] = 4.5 GBq IV (3rd patient at this dose)
[14] = 6.0 GBq IV (1st patient at this dose)
[15] = 6.0 GBq IV (2nd patient at this dose)
[16] = 6.0 GBq IV (3rd patient at this dose)
[17] = 7.5 GBq IV (1st patient at this dose)
[18] = 7.5 GBq IV (2nd patient at this dose)
[19] = half-life of CTT1403 vs reported 177Lu-PSMA-617
[20] = mean of 13 patients, 1.5-7.5 GBq IV, preliminary

O=C(O)CC[C@H](NP(=O)(O)OCCC[C@H](NC(=O)CC[C@H](NC(=O)CCCCCNC(=O)CCC(NC(=O)CCOCCOCCOCCOCCNC(=O)CCC(=O)N1Cc2ccccc2-c2c(nnn2CCCNC(=O)CN2CCN3CCN4CCN(CC2)CC(=O)[O][177Lu]([O]C(=O)C3)[O]C(=O)C4)-c2ccccc21)C(=O)NC(CCCCNC(=O)CCCc1ccc(I)cc1)C(=O)O)C(=O)O)C(=O)O)C(=O)O (some centres unmarked) [CTT1403]
serious adverse events after receipt of CTT1403 [1]: no serious adverse events | dose limiting organ ([2]; preclinical studies in rats): kidneys | expected kidney exposure estimated from preclinical studies in rats ([2]; predicted human kidney exposure from rat studies): ~5.2 Gy/GBq | Reduction in PSA compared to Cycle 1, Day 1 ([3]; Patient 002, maximum reduction): 75% | Reduction in PSA compared to Cycle 1, Day 1 ([3]; Patient 4, maximum reduction): 40% | Reduction in PSA compared to Cycle 1, Day 1 ([3]; Patient 13, reduction to date): 14% | Reduction in PSA compared to Cycle 1, Day 1 ([3]; Patient 15, reduction to date): 9% | PSA Result ([3]; patient 2 (1.50 GBq), 4 Weeks Post Treatment): 405.6 µg/L | PSA Result ([3]; patient 2 (1.50 GBq), 8 Weeks Post Treatment): 167.013 µg/L | PSA Result ([3]; patient 2 (1.50 GBq), 12 Weeks Post Treatment): 45.716 µg/L | PSA Result ([3]; patient 2 (1.50 GBq), Cycle 1-Day 1): 162.353 µg/L | PSA Result ([3]; patient 2 (1.50 GBq), Cycle 1-Day 22): 185.132 µg/L | PSA Result ([3]; patient 2 (1.50 GBq), Cycle 2-Day 1): 194.320 µg/L | PSA Result ([3]; patient 2 (1.50 GBq), End of Treatment): 215.919 µg/L | PSA Result ([3]; patient 4 (3.00 GBq), 8 Weeks Post Treatment): 41.80 µg/L | PSA Result ([3]; patient 4 (3.00 GBq), Cycle 1-Day 1): 65.684 µg/L | PSA Result ([3]; patient 4 (3.00 GBq), Cycle 1-Day 22): 77.876 µg/L | PSA Result ([3]; patient 4 (3.00 GBq), End of Treatment): 115.658 µg/L | PSA Result ([3]; patient 4 (3.00 GBq), Screening (before dosing)): 70.228 µg/L | PSA Result ([3]; patient 13 (5.99 GBq), Cycle 1-Day 1): 146.133 µg/L | PSA Result ([3]; patient 13 (5.99 GBq), Cycle 1-Day 22): 148.217 µg/L | PSA Result ([3]; patient 13 (5.99 GBq), Cycle 2-Day 1): 135.620 µg/L | PSA Result ([3]; patient 13 (5.99 GBq), Cycle 2-Day 22): 126.392 µg/L | PSA Result ([3]; patient 13 (5.99 GBq), Screening (before dosing)): 166.793 µg/L | PSA Result ([3]; patient 14 (7.98 GBq), Cycle 1-Day 1): 22.642 µg/L | PSA Result ([3]; patient 14 (7.98 GBq), Cycle 1-Day 22): 142 µg/L | PSA Result ([3]; patient 14 (7.98 GBq), Screening (before dosing)): 16.310 µg/L | PSA Result ([3]; patient 15 (7.77 GBq), Cycle 1-Day 1): 595.739 µg/L | PSA Result ([3]; patient 15 (7.77 GBq), Cycle 1-Day 22): 543.5 µg/L | PSA Result ([3]; patient 15 (7.77 GBq), Screening (before dosing)): 410.363 µg/L | Distribution Half-life [4, 6]: 0.75 h | Elimination Half-life 2 [4, 6]: 28.88 h | Distribution Half-life [4, 7]: 1.04 h | Elimination Half-life 2 [4, 7]: 23.90 h | Distribution Half-life [4, 8]: 0.51 h | Elimination Half-life 2 [4, 8]: 27.73 h | Distribution Half-life [4, 9]: 0.89 h | Elimination Half-life 2 [4, 9]: 31.51 h | Distribution Half-life [4, 10]: 0.70 h | Elimination Half-life 2 [4, 10]: 36.48 h | Distribution Half-life [4, 11]: 0.85 h | Elimination Half-life 2 [4, 11]: 33.01 h | Distribution Half-life [4, 12]: 0.85 h | Elimination Half-life 2 [4, 12]: 34.66 h | Distribution Half-life [4, 13]: 0.85 h | Elimination Half-life 2 [4, 13]: 43.32 h | Distribution Half-life [4, 14]: 0.78 h | Elimination Half-life 2 [4, 14]: 46.21 h | Distribution Half-life [4, 15]: 0.57 h | Elimination Half-life 2 [4, 15]: 30.14 h | Distribution Half-life [4, 16]: 1.06 h | Elimination Half-life 2 [4, 16]: 33.01 h | Distribution Half-life [4, 17]: 1.20 h | Elimination Half-life 2 [4, 17]: 57.76 h | Distribution Half-life [4, 18]: 1.00 h | Elimination Half-life 2 [4, 18]: 57.76 h | CTT1403 detection in blood ([4]; after 2 weeks, subjects who received the 7.5 GBq dose): still detected | fold greater distribution phase than the PSMA-617 agent [4, 19]: > 5.3 fold | fold greater elimination phase than the PSMA-617 agent [4, 19]: > 3.5 fold | Distribution half-life (mean) [4, 20]: 0.85 ± 0.2 h | Elimination half-life (mean) [4, 20]: 37.3 ± 10.9 h and 37.26 h | Distribution phase half-life, range ([4]; range over patients, 1.5-7.5 GBq IV): 0.51 to 1.2 h | circulation time compared with 177Lu-PSMA-617 ([4]; vs agent lacking the albumin binding moiety): at least two to ten-fold greater | cell bound agent that is internalized ([5]; PSMA-expressing PC3-PIP cells): 99% | Tumor cell uptake ([5]; after 2½ hours, PSMA-expressing PC3-PIP cells (FIG. 1)): ~84%
